# Biological target: Fatty acid synthase (Homo sapiens, UniProt P49327)
# Experiment: FAS Assay No1
# Method: Inhibition of FAS by benzimidazole was measured by an endpoint assay for NADPH consumption.
# Sequence of Fatty acid synthase (P49327 whole entry): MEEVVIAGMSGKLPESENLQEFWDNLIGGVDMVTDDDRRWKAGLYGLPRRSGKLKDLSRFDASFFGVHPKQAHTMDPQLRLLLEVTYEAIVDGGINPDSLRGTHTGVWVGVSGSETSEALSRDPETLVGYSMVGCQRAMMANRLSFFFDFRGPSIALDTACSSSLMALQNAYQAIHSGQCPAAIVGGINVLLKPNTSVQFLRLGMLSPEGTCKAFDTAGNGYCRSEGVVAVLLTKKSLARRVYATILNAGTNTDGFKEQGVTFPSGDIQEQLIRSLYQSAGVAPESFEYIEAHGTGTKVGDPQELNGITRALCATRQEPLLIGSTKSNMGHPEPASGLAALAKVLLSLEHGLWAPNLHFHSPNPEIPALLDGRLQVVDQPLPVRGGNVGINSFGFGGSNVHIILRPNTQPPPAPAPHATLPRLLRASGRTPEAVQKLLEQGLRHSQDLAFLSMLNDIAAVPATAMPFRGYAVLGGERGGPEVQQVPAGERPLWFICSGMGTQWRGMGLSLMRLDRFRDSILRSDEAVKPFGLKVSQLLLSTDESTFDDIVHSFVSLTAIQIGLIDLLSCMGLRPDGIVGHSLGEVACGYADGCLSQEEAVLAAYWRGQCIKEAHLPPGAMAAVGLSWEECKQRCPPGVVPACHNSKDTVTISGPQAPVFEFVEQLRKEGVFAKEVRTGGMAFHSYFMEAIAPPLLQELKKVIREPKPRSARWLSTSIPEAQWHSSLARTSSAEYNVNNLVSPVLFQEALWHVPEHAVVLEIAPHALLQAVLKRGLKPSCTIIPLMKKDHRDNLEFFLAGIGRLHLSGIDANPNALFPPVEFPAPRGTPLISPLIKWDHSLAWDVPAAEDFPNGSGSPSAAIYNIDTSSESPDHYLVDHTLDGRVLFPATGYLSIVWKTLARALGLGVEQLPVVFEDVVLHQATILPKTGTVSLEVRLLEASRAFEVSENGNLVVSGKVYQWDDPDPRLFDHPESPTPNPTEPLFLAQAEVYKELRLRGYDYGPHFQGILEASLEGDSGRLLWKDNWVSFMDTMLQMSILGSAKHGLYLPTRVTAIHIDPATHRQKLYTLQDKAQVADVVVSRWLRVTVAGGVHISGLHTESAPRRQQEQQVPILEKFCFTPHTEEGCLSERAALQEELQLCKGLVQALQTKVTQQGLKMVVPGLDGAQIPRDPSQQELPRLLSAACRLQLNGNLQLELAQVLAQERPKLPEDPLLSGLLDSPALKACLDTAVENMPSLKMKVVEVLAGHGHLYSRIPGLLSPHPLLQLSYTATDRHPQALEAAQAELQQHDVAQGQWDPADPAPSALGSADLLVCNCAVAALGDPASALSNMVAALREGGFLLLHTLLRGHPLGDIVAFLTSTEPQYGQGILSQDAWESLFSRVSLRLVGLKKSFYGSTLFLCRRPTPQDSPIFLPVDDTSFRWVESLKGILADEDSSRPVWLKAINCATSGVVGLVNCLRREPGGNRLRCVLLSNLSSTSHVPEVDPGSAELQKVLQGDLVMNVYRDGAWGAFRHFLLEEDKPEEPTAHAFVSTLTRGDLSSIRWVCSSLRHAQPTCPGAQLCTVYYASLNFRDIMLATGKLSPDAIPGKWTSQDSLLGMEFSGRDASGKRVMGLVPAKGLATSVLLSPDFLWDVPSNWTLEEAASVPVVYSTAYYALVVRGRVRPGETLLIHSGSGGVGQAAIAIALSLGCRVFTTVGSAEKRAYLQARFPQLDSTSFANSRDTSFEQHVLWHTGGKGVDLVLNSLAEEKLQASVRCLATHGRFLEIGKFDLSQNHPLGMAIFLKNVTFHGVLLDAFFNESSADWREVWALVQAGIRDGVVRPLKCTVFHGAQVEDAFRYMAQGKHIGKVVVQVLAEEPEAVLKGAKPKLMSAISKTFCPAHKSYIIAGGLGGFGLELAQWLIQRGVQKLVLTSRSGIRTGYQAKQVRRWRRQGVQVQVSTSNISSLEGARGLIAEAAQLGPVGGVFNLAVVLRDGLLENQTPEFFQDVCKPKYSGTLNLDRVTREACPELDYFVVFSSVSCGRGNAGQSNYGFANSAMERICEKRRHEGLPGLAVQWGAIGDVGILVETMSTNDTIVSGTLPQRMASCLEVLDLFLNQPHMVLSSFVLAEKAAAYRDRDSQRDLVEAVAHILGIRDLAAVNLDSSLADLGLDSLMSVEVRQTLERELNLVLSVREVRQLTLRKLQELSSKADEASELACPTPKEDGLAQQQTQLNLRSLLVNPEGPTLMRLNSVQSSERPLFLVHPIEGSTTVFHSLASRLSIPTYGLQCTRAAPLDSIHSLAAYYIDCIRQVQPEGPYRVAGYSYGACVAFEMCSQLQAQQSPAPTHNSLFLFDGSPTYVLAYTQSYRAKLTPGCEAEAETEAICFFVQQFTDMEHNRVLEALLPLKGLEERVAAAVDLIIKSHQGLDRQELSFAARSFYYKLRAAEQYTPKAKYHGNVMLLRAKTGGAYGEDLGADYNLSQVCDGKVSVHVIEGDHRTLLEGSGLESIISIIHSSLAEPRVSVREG
structure (smiles),measurement,value
"CNC(=O)c1ccc2nc(-c3ccc(-c4ccccc4)cc3)n(CC3CCN(C(=O)C4CC4)C3)c2c1 (stereo unspecified) [2-([1,1'-Biphenyl]-4-yl)-1-((1-(cyclopropanecarbonyl)pyrrolidin-3-yl)methyl)-N-methyl-1H-benzo[d]imidazole-6-carboxamide]",IC50,1000 nM
